From patent US20250249045A1, “COMPOSITIONS AND METHODS RELATED TO EXTRACELLULAR VESICLE THERAPEUTIC DELIVERY PLATFORM” (priority 2022, published 2025)

Legend:
[1] = system: SARS-CoV-2 pseudovirus; assay type: cell-based
[2] = system: SARS-CoV-2 pseudovirus; parameters: species or system mice; conditions: mouse

rhACE2
entry of SARS-CoV-2 pseudovirus into ACE2-expressing A549 cells [1]: efficiently blocked the infection | pseudovirus neutralization by flow cytometry [1]: efficiently neutralized | pseudovirus signals in lung, ex-vivo fluorescence imaging [2]: failed to block SARS-CoV-2 pseudovirus entry
